ChEMBL document CHEMBL5131570, “Discovery of Potent Small-Molecule USP8 Inhibitors for the Treatment of Breast Cancer through Regulating ERα Expression” (J Med Chem, 2022)
Calls of active or inactive are those of the source. The rule behind the calls is not given here.

Experiments:
MCF7 [1] = assay: Induction of apoptosis in human MCF7 cells assessed as increase in apoptotic cells at 0.2 uM incubated for 12 hrs by AnnexinV-FITC/propidium iodide staining based flow cytometry relative to control (reference value: 2.00 %); type: functional
[2] = target: T1, Ubiquitin carboxyl-terminal hydrolase 8 (Homo sapiens, UniProt P40818); assay: Binding affinity to N-terminal His6-tagged USP8 catalytic domain (734 to 1110 residues) (unknown origin) expressed in Escherichia coli BL21 (DE3) cells by surface plasmon resonance method
T1 sequence (P40818 whole entry): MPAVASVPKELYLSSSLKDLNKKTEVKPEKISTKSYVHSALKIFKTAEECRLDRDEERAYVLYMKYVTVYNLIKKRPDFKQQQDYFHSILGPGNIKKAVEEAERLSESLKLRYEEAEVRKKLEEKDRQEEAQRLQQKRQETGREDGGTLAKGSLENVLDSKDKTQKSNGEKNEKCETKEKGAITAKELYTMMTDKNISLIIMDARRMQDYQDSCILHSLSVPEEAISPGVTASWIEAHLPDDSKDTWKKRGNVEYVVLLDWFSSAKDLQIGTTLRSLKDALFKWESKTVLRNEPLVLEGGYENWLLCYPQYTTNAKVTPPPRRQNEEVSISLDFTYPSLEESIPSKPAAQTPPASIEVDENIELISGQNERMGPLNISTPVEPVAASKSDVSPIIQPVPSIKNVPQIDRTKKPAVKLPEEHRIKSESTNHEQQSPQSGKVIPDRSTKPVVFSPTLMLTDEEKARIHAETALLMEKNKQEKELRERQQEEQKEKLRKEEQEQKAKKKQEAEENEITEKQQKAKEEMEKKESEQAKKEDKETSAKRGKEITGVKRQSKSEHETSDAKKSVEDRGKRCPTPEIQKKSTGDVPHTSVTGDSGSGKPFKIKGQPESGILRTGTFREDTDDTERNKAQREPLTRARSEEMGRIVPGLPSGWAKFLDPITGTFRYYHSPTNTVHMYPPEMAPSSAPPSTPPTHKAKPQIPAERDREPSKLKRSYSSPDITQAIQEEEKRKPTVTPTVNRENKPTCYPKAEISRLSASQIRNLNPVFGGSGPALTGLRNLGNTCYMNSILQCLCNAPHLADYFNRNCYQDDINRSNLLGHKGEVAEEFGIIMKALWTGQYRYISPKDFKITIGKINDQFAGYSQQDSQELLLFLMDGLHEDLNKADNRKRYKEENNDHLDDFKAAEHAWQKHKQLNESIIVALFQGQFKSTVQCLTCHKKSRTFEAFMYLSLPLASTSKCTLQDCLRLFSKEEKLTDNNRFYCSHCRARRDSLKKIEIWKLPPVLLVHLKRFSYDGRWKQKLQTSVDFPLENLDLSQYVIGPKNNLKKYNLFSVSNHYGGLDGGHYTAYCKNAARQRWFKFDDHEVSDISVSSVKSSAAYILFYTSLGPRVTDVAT

[3] = target: T2, Ubiquitin carboxyl-terminal hydrolase 8 (Homo sapiens) (UniProt P40818); assay: Binding affinity to N-terminal His6-tagged USP8 catalytic domain (734 to 1110 residues) (unknown origin) expressed in Escherichia coli BL21 (DE3) cells using K63-linked di-ubiquitin as substrate by di-ubiquitin cleavage assay
T2 sequence (whole entry): T1 sequence (P40818 whole entry)

[4] = target: T2, Ubiquitin carboxyl-terminal hydrolase 8 (Homo sapiens); assay: Inhibition of N-terminal His6-tagged USP8 catalytic domain (734 to 1110 residues) in HEK293T intact cells up to 100 uM in presence of HA-Ub-VS probe by USP8 antibody based Western blotting assay; type: cell-based
[5] = target: T3, Ubiquitin carboxyl-terminal hydrolase 2 (Homo sapiens, UniProt O75604); assay: Inhibition of USP2 (267 to 599 residues) (unknown origin) catalytic domain expressed in Escherichia coli BL21 (DE3) cells using ubiquitin-rhodamine -110 as substrate incubated for 30 mins followed by substrate addition measured after 30 mins by ubiquitin-rhodamine-110 based fluorometric assay
T3 sequence (O75604 whole entry): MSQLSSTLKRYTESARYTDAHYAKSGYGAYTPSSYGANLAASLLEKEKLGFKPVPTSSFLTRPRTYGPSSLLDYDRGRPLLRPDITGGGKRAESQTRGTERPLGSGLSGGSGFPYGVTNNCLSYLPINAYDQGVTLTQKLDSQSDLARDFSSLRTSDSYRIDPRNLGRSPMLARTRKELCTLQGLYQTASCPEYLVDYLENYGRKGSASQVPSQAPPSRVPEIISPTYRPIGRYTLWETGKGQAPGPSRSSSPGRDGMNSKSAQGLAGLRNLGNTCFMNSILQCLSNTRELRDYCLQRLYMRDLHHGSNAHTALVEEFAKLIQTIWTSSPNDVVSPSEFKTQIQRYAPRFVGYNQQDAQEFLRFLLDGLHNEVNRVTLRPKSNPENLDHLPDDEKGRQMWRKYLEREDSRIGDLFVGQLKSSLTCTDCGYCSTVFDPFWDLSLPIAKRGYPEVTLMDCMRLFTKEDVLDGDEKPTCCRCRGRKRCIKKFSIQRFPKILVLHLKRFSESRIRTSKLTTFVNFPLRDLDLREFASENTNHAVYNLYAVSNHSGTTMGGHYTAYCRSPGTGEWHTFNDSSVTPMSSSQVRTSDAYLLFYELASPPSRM

MCF7 [6] = assay: Antiproliferative activity against human MCF7 cells assessed as reduction in colony formation at 3 uM incubated for 7 days by crystal violet staining based colony formation assay; type: functional, cell-based; details: time 7.0 day
MCF7 [7] = assay: Induction of apoptosis in human MCF7 cells assessed as reduction in EGFR expression level up to 5 uM incubated for 24 hrs by Western blotting analysis; type: functional, cell-based
MCF7 [8] = assay: Downregulation of ERalpha mRNA level in human MCF7 cells up to 5 uM measured after 24 hrs by RT-qPCR analysis; type: functional, cell-based
MCF7 [9] = assay: Downregulation of ERalpha expression in human MCF7 cells measured after 24 hrs by Western blotting analysis; type: functional, cell-based; details: dose 0.5-5 µM, DDE = dose-dependent effect
MCF7 [10] = assay: Downregulation of progesterone receptor expression in human MCF7 cells measured after 24 hrs by Western blotting analysis; type: functional, cell-based; details: dose 0.5-5 µM, DDE = dose-dependent effect
MCF7 [11] = assay: Downregulation of progesterone receptor expression in human MCF7 cells assessed as protein stability by measuring reduction in half life measured up to 24 hrs in presence of cycloheximide by Western blotting analysis; type: functional, cell-based
[12] = Toxicity in BALB/c mouse xenografted with human MCF7 cells assessed as change in body weight at 5 to 20 mg/kg, […] every other day for 14 days; type: organism-based; details: in vivo, 336 h, dose 5-20 mg/kg, time 14 day
MCF7 [13] = assay: Antitumor activity against human MCF7 cells xenografted in BALB/c mouse assessed as reduction of ErbB3 phosphorylation in tumor tissue at 5 to 20 mg/kg, ip administered via gavage every other day for 14 days by immunohistochemistry analysis; type: functional, organism-based; details: dose 5-20 mg/kg, time 14.0 day
[14] = Toxicity in BALB/c mouse xenografted with human MCF7 cells assessed as effect on spleen at 5 to 20 mg/kg, […] every other day measured after 14 days by hematoxylin and eosin staining based analysis; type: organism-based; details: in vivo, 336 h, dose 5-20 mg/kg, time 14 day
[15] = Toxicity in BALB/c mouse xenografted with human MCF7 cells assessed as effect on alanine aminotransferase level at 5 to 20 mg/kg, […] every other day measured after 14 days; type: organism-based; details: in vivo, 336 h, dose 5-20 mg/kg, time 14 day

- Kd [2]: 4.7 µM
- Activity [3]: Active
- inhibition [4]: Active
- IC50 [5]: 50 µM
Compound: Cc1n[nH]c(C)c1Oc1c(O)cc(O)c2c(=O)cc(-c3ccc(N4CCN(c5ccccn5)CC4)cc3)oc12
- Activity (MCF7 [1]): 1.9%
- Activity (MCF7 [6]): Active
- Activity (MCF7 [7]): Active
- Activity (MCF7 [8]): Active
- Activity (MCF7 [9]): Dde
- Activity (MCF7 [10]): Dde
- Activity (MCF7 [11]): Active
- Activity [12]: Non-Toxic
- Activity (MCF7 [13]): Active
- Activity [14]: Non-Toxic
- Activity [15]: Non-Toxic
